Results as given in US20250002487A1, “HETEROCYCLIC COMPOUNDS AND USES THEREOF” (Ventus Therapeutics U.S., Inc., priority 2021, published 2025).

Biological target: human-cGAS (h-cGAS) (Homo sapiens, UniProt Q8N884)
Test: hcGAS Kinase-Glo Assay
Type: biochemical
Details: 40 nM h-cGAS, 100 μM ATP, 100 μM GTP, 25 nM dsDNA, 3 h incubation, read-out: hcGAS potency IC50
In short: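 Kinase-Glo luminescent read-out of human cGAS activity, following the published Lama et al. (2019) protocol with slightly altered conditions. Inhibition reported as IC50.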

Sequence of human-cGAS (h-cGAS) (Q8N884 whole entry): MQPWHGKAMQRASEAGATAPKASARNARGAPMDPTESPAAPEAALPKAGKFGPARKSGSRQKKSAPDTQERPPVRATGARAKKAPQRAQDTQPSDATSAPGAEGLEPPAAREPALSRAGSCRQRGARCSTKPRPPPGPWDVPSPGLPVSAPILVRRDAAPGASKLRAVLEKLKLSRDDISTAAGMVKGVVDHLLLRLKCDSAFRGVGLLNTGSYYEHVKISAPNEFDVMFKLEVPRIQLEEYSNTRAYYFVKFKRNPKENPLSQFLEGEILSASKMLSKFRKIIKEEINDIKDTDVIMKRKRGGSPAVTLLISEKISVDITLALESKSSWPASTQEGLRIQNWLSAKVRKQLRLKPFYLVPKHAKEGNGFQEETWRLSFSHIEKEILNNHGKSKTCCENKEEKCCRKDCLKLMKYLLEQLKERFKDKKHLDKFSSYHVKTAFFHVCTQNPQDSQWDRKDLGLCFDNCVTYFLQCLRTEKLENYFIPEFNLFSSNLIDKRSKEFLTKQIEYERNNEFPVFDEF

| Structure (SMILES) | IC50 [nM] |
| --- | --- |
| CSc1nnc(NC(=O)c2cc(-c3ccc4ccncc4c3)cc(=O)o2)s1 [Compound 264, 4-(isoquinolin-7-yl)-N-(5-(methylthio)-1,3,4-thiadiazol-2-yl)-2-oxo-2H-pyran-6-carboxamide] | 100 to 500 |
| CSc1nnc(NC(=O)c2onc3cc(C(=O)N(C)C)ccc23)s1 [Compound 192, N^6,N^6-dimethyl-N^3-(5-(methylthio)-1,3,4-thiadiazol-2-yl)benzo[c]isoxazole-3,6-dicarboxamide] | ≥ 1000 |
| CSc1nnc(NC(=O)c2cc(-c3ccccc3C)no2)s1 [Compound 218, 3-(2-methylphenyl)-N-[5-(methylsulfanyl)-1,3,4-thiadiazol-2-yl]-1,2-oxazole-5-carboxamide] | 500 to 1000 |
| COc1ccc(-c2cc(C(=O)Nc3nnc(SC)s3)oc(=O)c2)cc1 [Compound 252, 4-(4-methoxyphenyl)-N-(5-methylsulfanyl-1,3,4-thiadiazol-2-yl)-6-oxo-pyran-2-carboxamide] | 100 to 500 |
| CSc1nnc(NC(=O)c2cc(-c3cccc4c3ncn4C)cc(=O)o2)s1 [Compound 274, 4-(1-methyl-1H-benzo[d]imidazol-4-yl)-N-(5-(methylthio)-1,3,4-thiadiazol-2-yl)-2-oxo-2H-pyran-6-carboxamide] | 100 to 500 |
| O=C(Nc1nnc(-c2ccccc2Cl)s1)c1nc[nH]n1 [Compound 58, N-(5-(2-chlorophenyl)-1,3,4-thiadiazol-2-yl)-1H-1,2,4-triazole-3-carboxamide] | 500 to 1000 |
| O=C(Nc1nnc(-c2ccccc2C(F)F)s1)c1onc2ccccc12 [Compound 147, N-(5-(2-(difluoromethyl)phenyl)-1,3,4-thiadiazol-2-yl)benzo[c]isoxazole-3-carboxamide] | 500 to 1000 |
| CSc1nnc(NC(=O)c2cc(C3CCC3)no2)s1 [Compound 86, 3-cyclobutyl-N-(5-(methylthio)-1,3,4-thiadiazol-2-yl)isoxazole-5-carboxamide] | 500 to 1000 |
| CSc1nnc(NC(=O)c2onc3ccc(Cc4ccc5c(c4)OCO5)cc23)s1 [Compound 185, 5-(Benzo[d][1,3]dioxol-5-ylmethyl)-N-(5-(methylthio)-1,3,4-thiadiazol-2-yl)benzo[c]isoxazole-3-carboxamide] | ≥ 1000 |
| CSc1nnc(NC(=O)c2nnn(-c3cccnc3)n2)s1 [Compound 137, N-(5-(methylthio)-1,3,4-thiadiazol-2-yl)-2-(pyridin-3-yl)-2H-tetrazole-5-carboxamide] | ≥ 1000 |
| CSc1nnc(NC(=O)c2cc(C(=O)O)no2)s1 [Compound 16, 5-((5-(methylthio)-1,3,4-thiadiazol-2-yl)carbamoyl)isoxazole-3-carboxylic acid] | 100 to 500 |
| CSc1nnc(NC(=O)c2onc3ccc(Nc4ccccc4)cc23)s1 [Compound 162, N-(5-(methylthio)-1,3,4-thiadiazol-2-yl)-5-(phenylamino)benzo[c]isoxazole-3-carboxamide] | 500 to 1000 |
| CSc1nnc(NC(=O)c2cc(-c3ccc4ccccc4c3)cc(=O)o2)s1 [Compound 245, N-(5-methylsulfanyl-1,3,4-thiadiazol-2-yl)-4-(2-naphthyl)-6-oxo-pyran-2-carboxamide] | 100 to 500 |
| CSc1nnc(NC(=O)c2onc3c2CCc2sc(C)nc2-3)s1 [Compound 181, 7-methyl-N-(5-(methylthio)-1,3,4-thiadiazol-2-yl)-4,5-dihydrothiazolo[5′,4′:5,6]benzo[1,2-c]isoxazole-3-carboxamide] | 500 to 1000 |
| CSc1nnc(NC(=O)c2cc(-c3cccc4ccccc34)cc(=O)o2)s1 [Compound 253, N-(5-methylsulfanyl-1,3,4-thiadiazol-2-yl)-4-(1-naphthyl)-6-oxo-pyran-2-carboxamide] | 100 to 500 |
| COc1cccc(-c2cc(C(=O)Nc3nnc(SC)s3)oc(=O)c2)c1 [Compound 241, 4-(3-methoxyphenyl)-N-(5-methylsulfanyl-1,3,4-thiadiazol-2-yl)-6-oxo-pyran-2-carboxamide] | 100 to 500 |
| CSc1nnc(NC(=O)c2cc(-c3ccccc3F)cc(=O)o2)s1 [Compound 237, 4-(2-fluorophenyl)-N-(5-methylsulfanyl-1,3,4-thiadiazol-2-yl)-6-oxo-pyran-2-carboxamide] | 100 to 500 |
| CNC(=O)c1cc(C(=O)Nc2nnc(-c3ccccc3Cl)s2)on1 [Compound 89, N5-(5-(2-chlorophenyl)-1,3,4-thiadiazol-2-yl)-N3-methylisoxazole-3,5-dicarboxamide] | 500 to 1000 |
| O=C(Nc1nnc(-c2ccccc2Cl)s1)c1cc(-c2ccccc2)cc(=O)o1 [Compound 205, N-[5-(2-chlorophenyl)-1,3,4-thiadiazol-2-yl]-6-oxo-4-phenylpyran-2-carboxamide] | 100 to 500 |
| CSc1nnc(NC(=O)c2ccnc(-c3ccccc3)c2)s1 [Compound 266, N-(5-(methylthio)-1,3,4-thiadiazol-2-yl)-2-phenylisonicotinamide] | ≥ 1000 |
| CSc1nnc(NC(=O)c2nnc(N3CCCC[C@@H]3c3ccccc3)o2)s1 (single isomer, unassigned) [Compound 121*] | 500 to 1000 |
| CN(C)C(=O)c1cc(C(=O)Nc2nnc(-c3ccccc3Cl)s2)on1 [Compound 87, N5-(5-(2-chlorophenyl)-1,3,4-thiadiazol-2-yl)-N3,N3-dimethylisoxazole-3,5-dicarboxamide] | 500 to 1000 |
| CSc1nnc(NC(=O)c2nnc(N3CCCC3c3ccccc3)o2)s1 (stereo not drawn) [Compound 123, N-(5-(methylthio)-1,3,4-thiadiazol-2-yl)-5-(2-phenylpyrrolidin-1-yl)-1.3,4-oxadiazole-2-carboxamide] | 100 to 500 |
| CN(C)c1nnc(NC(=O)c2onc3c2ccc2cccnc23)s1 [Compound 14, N-(5-(dimethylamino)-1,3,4-thiadiazol-2-yl)isoxazolo[4,3-h]quinoline-3-carboxamide] | ≥ 1000 |

Other lines, results leading:

| IC50 [nM] | Structure (SMILES) |
| --- | --- |
| 100 to 500 | Cc1nn(C)cc1-c1cc(C(=O)Nc2nnc(-c3ccccc3Cl)s2)on1 [Compound 54, N-(5-(2-chlorophenyl)-1,3,4-thiadiazol-2-yl)-3-(1,3-dimethyl-1H-pyrazol-4-yl)isoxazole-5-carboxamide] |
| ≥ 1000 | CSc1nnc(NC(=O)c2nc(-c3ccccc3)cs2)s1 [Compound 65, N-(5-(methylthio)-1,3,4-thiadiazol-2-yl)-4-phenylthiazole-2-carboxamide] |
| ≥ 1000 | CSc1nnc(NC(=O)c2cc(-c3cccc(OC(F)(F)F)c3)no2)s1 [Compound 83, N-(5-(methylthio)-1,3,4-thiadiazol-2-yl)-3-(3-(trifluoromethoxy)phenyl)isoxazole-5-carboxamide] |
| ≥ 1000 | CSc1nnc(NC(=O)c2nnc(Cc3cccc(Cl)c3)o2)s1 [Compound 44, 5-(3-chlorobenzyl)-N-(5-(methylthio)-1,3,4-thiadiazol-2-yl)-1,3,4-oxadiazole-2-carboxamide] |
| 100 to 500 | CCc1nnc(NC(=O)c2onc3c2ccc2cccnc23)s1 [Compound 197, N-(5-ethyl-1,3,4-thiadiazol-2-yl)isoxazolo[4,3-h]quinoline-3-carboxamide] |
| 100 to 500 | O=C(Nc1nnc(-c2ccccc2Cl)s1)c1cc(-c2ncccn2)no1 [Compound 154, N-(5-(2-Chlorophenyl)-1,3,4-thiadiazol-2-yl)-3-(pyrimidin-2-yl)isoxazole-5-carboxamide] |
| 100 to 500 | CSc1nnc(NC(=O)c2cc(-c3ncc4ccccc4n3)no2)s1 [Compound 153, N-(5-(Methylthio)-1,3,4-thiadiazol-2-yl)-3-(quinazolin-2-yl)isoxazole-5-carboxamide] |
| ≥ 1000 | CSc1nnc(NC(=O)c2cn(CCC(C)(C)C)nn2)s1 [Compound 198, 1-(3,3-dimethylbutyl)-N-(5-(methylthio)-1,3,4-thiadiazol-2-yl)-1H-1,2,3-triazole-4-carboxamide] |
| 500 to 1000 | COc1ccccc1-c1nnc(NC(=O)c2onc3ccccc23)s1 [Compound 24, N-(5-(2-methoxyphenyl)-1,3,4-thiadiazol-2-yl)benzo[c]isoxazole-3-carboxamide] |
| ≥ 1000 | COc1ccc(-c2cc(C(=O)Nc3nnc(SC)s3)on2)cc1 [Compound 210] |
| ≥ 1000 | CSc1nnc(NC(=O)c2onc3c2CCc2scnc2-3)s1 [Compound 171, N-(5-(methylthio)-1,3,4-thiadiazol-2-yl)-4,5-dihydrothiazolo[5′,4′:5,6]benzo[1,2-c]isoxazole-3-carboxamide] |
| 500 to 1000 | CSc1nnc(NC(=O)c2onc3ccc(S(=O)(=O)c4ccccc4)cc23)s1 [Compound 164, N-(5-(methylthio)-1,3,4-thiadiazol-2-yl)-5-(phenylsulfonyl)benzo[c]isoxazole-3 carboxamide] |
| 500 to 1000 | CSc1nnc(NC(=O)c2nnc(Nc3ccccc3)o2)s1 [Compound 257, 5-anilino-N-(5-methylsulfanyl-1,3,4-thiadiazol-2-yl)-1,3,4-oxadiazole-2-carboxamide] |
| 100 to 500 | O=C(Nc1nnc(-c2ccccc2Cl)s1)c1nnc(N2CCC[C@@H]2c2ccccn2)o1 [Compound 117, (R)-N-(5-(2-chlorophenyl)-1,3,4-thiadiazol-2-yl)-5-(2-(pyridin-2-yl)pyrrolidin-1-yl)-1,3,4-oxadiazole-2-carboxamide] |
| 500 to 1000 | CSc1nnc(NC(=O)c2cc(Cc3ccccc3)no2)s1 [Compound 233, 3-benzyl-N-[5-(methylsulfanyl)-1,3,4-thiadiazol-2-yl]-1,2-oxazole-5-carboxamide] |
| ≥ 1000 | CSc1nnc(NC(=O)c2onc3ccc(Sc4ccccc4)cc23)s1 [Compound 163, N-(5-(methylthio)-1,3,4-thiadiazol-2-yl)-5-(phenylthio)benzo[c]isoxazole-3-carboxamide] |
| ≥ 1000 | O=C(Nc1nnc(-c2c[nH]cn2)s1)c1onc2ccccc12 [Compound 129, N-[5-(1H-imidazol-4-yl)-1,3,4-thiadiazol-2-yl]-2,1-benzoxazole-3-carboxamide] |
| ≥ 1000 | CSc1nnc(NC(=O)c2onc3ccc(C(=O)c4ccccc4)cc23)s1 [Compound 167, 5-benzoyl-N-(5-(methylthio)-1,3,4-thiadiazol-2-yl)benzo[c]isoxazole-3-carboxamide] |
